Series [1] is described as follows: Saturation solubility of OA in different oils and surfactants. Format: physicochemical. The following applies: thermodynamic from solid. How it is done: The solubility of OA in different vehicles was defined by adding an excess of OA to 2 mL of each of the tested solvents/tensides: Water, Capmul PG-8/NF, Capmul PG-12/NF, Capryol 90, Captex 300, Captex 355, Cremophor EL, Etyl Oleate, Isoprpyl myristate, Labrafac lipophile, Labrafilm 1944, Labrafilm 2125, Labrasol, Labrasol ALF, Lauroglycol 90, Nigella Oil, PEG400, Soybean Oil, Sunflower Oil, Transcutol, Triacetine, Tween 20 and Tween 80. Each mixture of solvent and OA was stirred for 24 h at 25 °C, then it was centrifuged at 14,000× g for 10 min. After removing the precipitate, the supernatant was diluted with MeOH and analyzed by HPLC-DAD to determine the concentration of the OA. The analyses were performed in triplicate.

A short description of series [2]: In vitro release, dialysis bag method, EtOH:PBS (30:70). It counts as physicochemical. The following applies: 6 h, 37 °C. The procedure: The release studies of OA from MEs in comparison to OA solution (SDS 0.5% p/V in H2O) were carried out with the dialysis bag method (regenerated cellulose dialysis membranes, Spectrum Laboratories, Inc., Breda, The Netherlands, MWCO 12–14 kD). Two mL of the OA-MEs or the solution were placed into a 12–14 kDa dialysis membrane and immersed into 200 mL of the release medium at 37 °C under magnetic stirring, using EtOH:PBS (30:70) as the release medium. In vitro release study was also carried out in the simulated gastric fluid (SGF) medium at pH 1.2 for 2 h followed by simulated intestinal fluid (SIF) at pH 6.8 for 6 h. The composition of the gastric fluid was 2 g of NaCl and 7 mL of HCl per liter of deionized water. The intestinal fluid was composed of 6.805 g of KH2PO4 and 0.896 g of NaOH per liter of deionized water. At predetermined time intervals, 1 mL of each release medium was withdrawn and replaced with an equal volume of fresh solution. The OA concentration in samples was finally determined by HPLC-DAD. All studies were performed in triplicate.
To evaluate the kinetics and mechanism of drug release from the microemulsions, the Korsmeyer–Peppas model, Hixson–Crowell model and Higuchi model, and the first order and zero order mathematical models, were used, and the best-fitted model was selected based on high regression coefficient (R^2) value for the release data.

A short description of series [3]: Parallel artificial membrane permeability assay (PAMPA). It counts as in vitro ADME. The following applies: room temperature, read-out: permeability coefficient (Pe). How it is done: The test was carried out in a 96-well, MultiScreen-IP PAMPA (Millipore corporation) filter plate in order to evaluate the ability of compounds to diffuse from a donor compartment into an acceptor compartment. EtOH:PBS (30:70) mixture was selected as the acceptor medium for ME-1-OA and EtOH:PBS (5:95) for ME-2-OA. Each membrane was activated with a combination of lecithin and cholesterol, 10 g/L and 8 g/L, respectively, in 1,7-octadiene. Immediately after the deposition of the solution (5 µL), 250 µL of OA solution and appropriately diluted MEs-OA were added to each well of the donor plate. Each receptor plate was filled with 250 µL of acceptor medium. The plate was incubated at room temperature for 1 h. Then, the samples were withdrawn, properly diluted with methanol, centrifuged for 10 min at 14,000× g, and the OA concentration determined by HPLC-DAD. The permeability coefficient Pe (cm/s) was calculated according to the following equation: Pe=−ln 1−CAt/Ceq/A 1/VD+1/VAt where A is the active surface area (0.3 cm^2 × apparent porosity of the filter), VD and VA the well volume of the donor and acceptor plate (mL), respectively, t the incubation time (s), and CAt and CDt the concentration of OA in the acceptor and donor plate at time t, respectively. Ceq was calculated according to: Ceq=CDt × VD+CAt × VA/VA+VD
On the technique in general: PAMPA measures passive passage across an artificial lipid membrane.

Series [4] relates to RAW 264.7 cells. Nature of the series: MTT assay, cell viability without LPS. Format: cell-based, murine. The following applies: 18 h, compared to untreated control cells. How it is done:
The murine macrophages RAW 264.7 cell line (ATCC TIB-71™) was used in this study. Cells were grown in DMEM culture medium supplemented with L-glutamine (2 mM), streptomycin (100 µg/mL) and penicillin (100 U/mL), and 10% Heat-Inactivated Fetal Bovine Serum (HI-FBS), at 37 °C in 5% CO2 atmosphere. HI-FBS was obtained by incubating FBS at 55 °C for 30 min. Upon reaching 90% confluence, macrophage subcultures were prepared by scraping cells and adding appropriate dilutions of the cell suspension to a new plate. The culture medium was replaced every 3 days. The Methyl Thiazolyl Tetrazolium (MTT) assay was used to assess the viability of RAW 264.7 cells under various experimental conditions. Cells were seeded in a 96-well plate (15 × 10^3 cells/well) in complete medium and incubated overnight. Next, cells were starved for 6 h, and then treated for an additional 18 h with OA and OA loaded in the two different formulations (ME-1-OA and ME-2-OA) at various concentrations, in the absence or presence of LPS (1 μg/mL). […] Subsequently, cells were incubated with a 0.5 mg/mL solution of MTT (100 μL/well) for 1 h in the dark at 37 °C. After a wash in PBS, the insoluble formazan crystals were dissolved by adding 100 μL/well of dimethyl sulfoxide (DMSO). The iMARK microplate reader (Bio-Rad, Hercules, CA, USA) was used to measure absorbance values at a wavelength of 595 nm. […]

Series [5] has as its system RAW 264.7 cells. Kind of series: MTT assay, LPS-induced reduction of cell viability. It counts as cell-based, murine. The note with it: 18 h. The procedure: In in vitro cell-based experiments, cells were incubated in serum-free DMEM medium (starvation medium) for 6 h and then incubated for an additional 18 h in the presence of LPS (1 μg/mL). LPS was used as a pro-inflammatory and pro-oxidant stimulus. Cells untreated and not exposed to LPS stimulus were used as controls. The Methyl Thiazolyl Tetrazolium (MTT) assay was used to assess the viability of RAW 264.7 cells under various experimental conditions. Cells were seeded in a 96-well plate (15 × 10^3 cells/well) in complete medium and incubated overnight. Next, cells were starved for 6 h, and then treated for an additional 18 h with OA and OA loaded in the two different formulations (ME-1-OA and ME-2-OA) at various concentrations, in the absence or presence of LPS (1 μg/mL). […] Subsequently, cells were incubated with a 0.5 mg/mL solution of MTT (100 μL/well) for 1 h in the dark at 37 °C. After a wash in PBS, the insoluble formazan crystals were dissolved by adding 100 μL/well of dimethyl sulfoxide (DMSO). The iMARK microplate reader (Bio-Rad, Hercules, CA, USA) was used to measure absorbance values at a wavelength of 595 nm. Data were reported in percentage terms compared with untreated control cells not exposed to LPS. The experiment was repeated in triplicate.
For orientation: Tetrazolium assays rely on reduction of a dye to a coloured formazan, in cell work by metabolically active cells.

Series [6] has as its system RAW 264.7 cells. Nature of the series: Intracellular ROS production (DCFDA probe) under LPS. The note with it: 18 h. It counts as cell-based, murine. The procedure: In in vitro cell-based experiments, cells were incubated in serum-free DMEM medium (starvation medium) for 6 h and then incubated for an additional 18 h in the presence of LPS (1 μg/mL). LPS was used as a pro-inflammatory and pro-oxidant stimulus. Cells untreated and not exposed to LPS stimulus were used as controls. DCFDA fluorescent probe was used for sensitive and rapid quantification of intracellular ROS in response to LPS stimulus. Cells were seeded in a 96-well plate (20 × 10^3 cells/well) in complete medium and incubated overnight. After 6 h starvation, cells were treated for an additional 18 h with OA and OA loaded in the two different formulations (ME-1-OA and ME-2-OA) at various concentrations, in the absence or presence of LPS (1 μg/mL). […] Next, DCFDA probe (10 μM in PBS) was added to each well and incubated in the dark for 1.5 h at 37 °C. Fluorescence values were measured at excitation and emission wavelengths of 485 and 538 nm, respectively, using a fluorescence microplate reader (Fluoroskan Ascent^TM FL Microplate Fluorometer, Thermo Fisher Scientific, (Waltham, MA, USA). The level of intracellular ROS was normalized to cell viability. Data were reported in percentage terms compared with untreated control cells not exposed to LPS. The experiment was repeated in triplicate.

Details of series [7]: method as in PMID 17163409. The following applies: water; cited from earlier work.
On the set-up of series [8]: method as in PMID 17163409. The note with it: rats, oral doses of 25 and 50 mg/kg; cited from earlier work.
Where [9] appears, read: LPS 1 μg/mL, compared with unstimulated control cells.

In brackets after ≈: the same amount, converted by molar mass.

Consider `CC1(C)CC[C@]2(C(=O)O)CC[C@]3(C)C(=CC[C@@H]4[C@@]5(C)CC[C@H](O)C(C)(C)[C@@H]5CC[C@]43C)[C@@H]2C1` [OA, Oleanolic acid], for which the solubility at 24 h is 19.72 ± 0.13 mg/mL (≈ 43.2 mM) in series [1] (oil or lipid, in Capmul PG-8/NF, 24 h at 25 °C); 16.4 ± 1.04 mg/mL (≈ 36 mM) in series [1] (oil or lipid, in Capmul PG-12/NF, 24 h at 25 °C); 24.9 ± 0.9 mg/mL (≈ 54.6 mM) in series [1] (oil or lipid, in Capryol 90, 24 h at 25 °C); 3.74 ± 0.1 mg/mL (≈ 8.19 mM) in series [1] (oil or lipid, in Captex 300, 24 h at 25 °C); 3.19 ± 0.24 mg/mL (≈ 6.98 mM) in series [1] (oil or lipid, in Captex 355, 24 h at 25 °C); 2.13 ± 0.21 mg/mL (≈ 4.66 mM) in series [1] (oil or lipid, in Etyloleate, 24 h at 25 °C). Moreover, the solubility at 24 h in series [1] (oil or lipid, in Isopropil myristate, 24 h at 25 °C) is 9.44 ± 1.05 mg/mL (≈ 20.7 mM); in series [1] (oil or lipid, in Labrafac Lipophile, 24 h at 25 °C), 13.3 ± 0.87 mg/mL (≈ 29.1 mM); in series [1] (oil or lipid, in Labrasol ALF, 24 h at 25 °C) it was 12 ± 0.84 mg/mL (≈ 26.2 mM); in series [1] (oil or lipid, in Labrasol, 24 h at 25 °C), 13.3 ± 0.21 mg/mL (≈ 29.1 mM); in series [1] (oil or lipid, in Lauroglycole 90, 24 h at 25 °C), 10.8 ± 0.56 mg/mL (≈ 23.5 mM); in series [1] (oil or lipid, in Nigella oil, 24 h at 25 °C) it was 35.4 ± 1.41 mg/mL (≈ 77.5 mM). The solubility at 24 h in series [1] (oil or lipid, in Soybean oil, 24 h at 25 °C) is 1.06 ± 0.17 mg/mL (≈ 2.32 mM); in series [1] (oil or lipid, in Sunflower oil, 24 h at 25 °C), 11.8 ± 0.46 mg/mL (≈ 25.7 mM); in series [1] (oil or lipid, in Triacetine, 24 h at 25 °C), 3.09 ± 0.17 mg/mL (≈ 6.77 mM); in series [1] (organic solvent or mixture, in PEG 400, 24 h at 25 °C) it was 8.49 ± 0.58 mg/mL (≈ 18.6 mM); in series [1] (organic solvent or mixture, in Transcutol HP, 24 h at 25 °C), 41 ± 2.41 mg/mL (≈ 89.8 mM); in series [1] (in Cremophor EL, 24 h at 25 °C), 28.3 ± 0.93 mg/mL (≈ 62 mM). For the same molecule, the solubility at 24 h in series [1] (in Tween 20, 24 h at 25 °C) is 6.19 ± 0.58 mg/mL (≈ 13.6 mM); in series [1] (in Tween 80, 24 h at 25 °C) it was 4.56 ± 0.36 mg/mL (≈ 9.98 mM). The OA released in series [2] is listed as 23.6 ± 1.25%. Further, in series [3], the Papp at 1 h was found to be 0.369 ×10⁻⁶ cm/s. Moreover, the “change in cell viability” value with RAW 264.7 cells [4] (0.05–1 μg/mL) is given as “No significant change in cell viability”. For the same molecule, in the series with RAW 264.7 cells [4] (2.5–10 μg/mL), the “reduction in cell viability” value is 25–30%. The “protective effect against LPS-induced reduction of cell viability” value with RAW 264.7 cells [5] (free OA 0.05–1 μg/mL with LPS 1 μg/mL) was “no significant protective effect”. Further, in the series on RAW 264.7 cells [6] (free OA 0.25–1 μg/mL with LPS 1 μg/mL), the “effect against LPS-induced intracellular ROS production” value was “mild but significant”. The aqueous solubility in series [7] is 1.75 µg/L (≈ 3.83e-06 mM). Also, in series [8], the oral bioavailability is on record as 0.7%.

On to “lipopolysaccharide [LPS, reference compound]”, for which the cell viability in the series on RAW 264.7 cells [5] (setting [9]) was found to be 70 ± 7%. Besides, the “intracellular ROS levels” value in the series with RAW 264.7 cells [6] (setting [9]) stood at 165 ± 7%.

As a reminder, the solubility is the dissolved amount per volume that the medium holds. In general, aqueous solubility refers to how much of the substance goes into solution per volume. For orientation: cell viability means a read-out of living cells in per cent, often relative to untreated cells. The low end stands for a greater loss of cells, the high end for better survival.
